US6846843B2, “β-thioamino acids” (Gruenenthal GmbH, priority 2000, dated 2005)
Where two headings read alike, the source gives them in different places.

Tests used:
[1] = system: formalin-induced nociception; assay: Formalin test on mice (second phase); type: in vivo; conditions: read-out: Mouse Formalin Test ED50
Procedure: The investigations to determine the antinociceptive action of the compounds according to the invention were carried out by the formalin test on male albino mice (NMRI, 25-35 g, Iffa Credo, Belgium).
In the formalin test the first (early) phase (0-15 minutes after the formalin injection) and the second (late) phase (15-60 minutes after the formalin injection) differ (D. Dubuisson et al., Pain, Vol. 4, pp. 161-174 (1977)). The early phase, being a direct reaction to the formalin injection, constitutes a model for acute pain, whereas the late phase is regarded as a model for persistent (chronic or inflammatory) pain (T. J. Coderre et al., Pain, Vol. 52, pp. 259-285 (1993)).
The compounds according to the invention were investigated in the second phase of the formalin test in order to obtain information on the effects of substances in chronic/inflammatory pain.
By means of a single subcutaneous formalin injection (20 μl, 1% aqueous solution) into the dorsal side of the right-hand rear paw, a nociceptive reaction was induced in unconstrained experimental animals, manifested in a noticeable licking and biting of the affected paw. The nociceptive behavior during the investigation period in the second (late) phase of the formalin test was continuously monitored by observing the animals. The pain reaction was quantified by totalling the time in seconds during which the animals continued to lick and bite the affected paw during the investigation period. After injecting substances that have an antinociceptive effect in the formalin test, the aforedescribed behavior pattern of the animals is reduced or possibly even eliminated. Corresponding to the substance tests, in which the animals had been injected with the test substance before formalin, the control animals were injected with a vehicle, i.e. solvent (e.g. 0.9% NaCl solution) before the formalin injection. The behavior of the animals after administration of the substance (n=10 per substance dose) was compared with a control group (n=10).
Based on the quantification of the pain reaction, the effect of the substance in the formalin test was determined as the change in the control in percentage terms. The ED50 calculations were carried out by means of regression analysis. The application time before the formalin injection (intraperitoneally: 15 minutes, intravenously: 5 minutes) was chosen depending on the type of application of the compounds according to the invention.

[2] = system: phenylquinone-induced writhing reactions; assay: Phenylquinone-induced writhing test in mice; type: in vivo; conditions: iv, read-out: Writhing Mouse i.v. ED50
Procedure: The antinociceptive effectiveness of the compounds according to the invention was investigated in mice using the phenylquinone-induced writhing test as modified by I. C. Hendershot and J. Forsaith, J. Pharmacol. Exp. Ther. 125, 237-240 (1959)). Male NMRI mice weighing 25-30 g were used for this purpose. Groups of 10 animals per substance dose were given intraperitoneally 10 minutes after intravenous administration of a compound according to the invention, 0.3 ml/mouse of a 0.02% aqueous solution of phenylquinone (phenylbenzoquinone, from Sigma, Deisenhofen; solution prepared by addition of 5% of ethanol and storage in a water bath at 45° C.). The animals were placed individually in observation cages. The number of pain-induced stretching movements (so-called writhing reactions=contortion of the body accompanied by stretching of the rear extremities) 5-20 minutes after administration of the phenylquinone were counted using a push-button counter. Animals that had received physiological saline solution i.v. and phenylquinone […]. served as controls.
All substances were tested in the standard dose of 10 mg/kg.

gabapentin binding site = assay: Gabapentin binding assay (displacement of gabapentin from its binding site); conditions: displacement of gabapentin; hydrochloride; read-out: Affinity (IC50)
Procedure: Gabapentin is used in the binding assay in order to determine the binding and affinities of the selected compounds. The affinity of the compounds according to the invention is measured via the displacement of gabapentin from its binding site.

[3] = system: mechanical hyperalgesia after paw incision; assay: Mechanical hyperalgesia after paw incision in rats (paw incision model); type: in vivo; conditions: rat, 464 mg/kg i.p.
Procedure: In this model the wound pain in the tissue surrounding an incision in the plantar side of a rear rat paw is investigated as a model of post-operative pain (Brennan, T. J., Vandermeulen, E. P., Gebhart, G. F., Pain (1996) 493-501). For this purpose the retraction latency after punctiform mechanical stimulation with an electronic von Frey filament is determined. After the paw incision a mechanical hyperalgesia develops, which remains stable over several days.
Male Sprague Dawley rats (bodyweight 200-300 g) are used. Under halothane anaesthesia a 1 cm-long incision is made starting 0.5 cm from the proximal end of the heel, through the skin, fascia and plantaris muscle, and closed with two stitches.
The retraction threshold of the paw expressed in grams after punctiform mechanical stimulation is determined using an electronic von Frey filament (Digital Transducer Indicator Model 1601C, IITC Inc.). For this purpose the retraction threshold per measurement point is measured five times at intervals of 30 seconds and the individual median value is determined, on the basis of which the mean value of the animal cohort is in turn calculated. […]
In order to investigate primary hyperalgesia, the retraction threshold is determined on the ipsilateral paw in the immediate vicinity of the incision as well as in the same position on the contralateral paw. […]

cold-induced allodynia = assay: Bennett model, neuropathic pain in rats (cold-induced allodynia); type: in vivo; conditions: rat; for AUD: over 1 hour, *** p≦0.001
Procedure: The effectiveness in neuropathic pain was investigated using the Bennett model (Chronic Constriction Injury: Bennett and Xie, 1988, Pain 33: 87-107).
The right sciatic nerve of Sprague-Dawley rats weighing 140-160 g anaesthetised with nembutal was loosely ligatured in four places. The animals develop an hypersensitivity in the paw inervated by the damaged nerve, which after a one-week healing phase is quantified over about four weeks by means of a 4° C. cold metal plate (cold-induced allodynia). The animals are observed for a period of 2 minutes on this plate and the number of contractive reactions of the damaged paw is measured. The effect of the substance is determined at four times over a period of 1 hour (15, 30, 45 and 60 minutes after application) with reference to the baseline value before application of the substance and the resulting area under the curve (AUD) as well as the inhibition of the cold-induced allodynia at the individual measuring points is expressed as a percentage inhibition with respect to the vehicle control (AUD) and to the starting value (individual measurement points). The group size is n=10, and the significance of an anti-allodynic action is determined on the basis of the AUD values over a paired Test (* 0.05≧p>0.01; ** 0.01≧p>0.001; *** p≦0.001; Armitage and Berry, 1987, Stat. Methods in Medical Research, London: Blackwell Scientific Publications).

[4] = mouse, i.v., 10 minutes before phenylquinone

Structure (SMILES)	ED50 ([1]; iv, mouse, i.v., second phase) [mg/kg]	ED50 [2, 4] [mg/kg]	IC50 (gabapentin binding site) [nM]	% MPE (Maximal Possible Effect) [3]	ED50 ([1]; Mus musculus) [mg/kg]	ED50 ([2]; Mus musculus) [mg/kg]	Change Compared to Control (%) (cold-induced allodynia; 100 mg/kg i.p.)	AUD (cold-induced allodynia; 100 mg/kg i.p.)	Change Compared to Control (%) (cold-induced allodynia; 464 mg/kg i.p.)	AUD (cold-induced allodynia; 464 mg/kg i.p.)	Change Compared to Control (%) (cold-induced allodynia; 46.4 mg/kg i.p.)	AUD (cold-induced allodynia; 46.4 mg/kg i.p.)
CCCCCCCC(C)(S)C(N)C(=O)O.Cl (racemic) [Compound 6, rac-2-amino-3-mercapto-3-methyldecanoic acid hydrochloride]	66	35	199	27% MPE (464 mg/kg) i.p.								
NCC1(CC(=O)O)CCCCC1 [Gabapentin, gabapentin, reference compound]					79	38	34.5	1940.3 ± 139.7***	47.3	2577.8 ± 147.4***		
CCCCCC(C)(S)C(N)C(=O)O.Cl (racemic) [Compound 4, rac-2-amino-3-mercapto-3-methyloctanoic acid hydrochloride]	67	12	186				66.9	3603.1 ± 228.1***			32.5	1893.1 ± 284.6***
